Reference: patent US20220315554A1, “COMPOUNDS COMPRISING A […] LIGAND AND USE THEREOF” (priority 2019, published 2022)
pIC50, pKd: −log10 of the molar value. Numbered stars: 1 amine (or outer) side, 2 acyl side, 3 side chain; on linkers, the order of the positions; unused ones are H or OH. Bridge positions count the residues as written; N and C are the ends. Square brackets hold non-standard residues; d marks the D form. Peptide text beside a SMILES is read from it. * marks the point of attachment. X13 = O=C(O)CN1CCN(CC(=O)O)CCN(CC(=O)NCCSCc2cc(CSCCN[*:2])cc(C[*:1])c2)CCN(CC(=O)O)CC1; mXylylene = c1cc(C[*:1])cc(C[*:2])c1; 4Pal = N[C@@H](Cc1ccncc1)C(=O)O; Aic = NC1(C(=O)O)Cc2ccccc2C1; Hexanoyl = CCCCCC(=O)*

Tests used:
[1] = biological target: T1, FAP-expressing human WI-38 fibroblasts (Homo sapiens, UniProt Q12884); test: Competitive FACS binding assay; conditions: pIC50 Category (FACS), competition with 3 nM Cy5-labeled compound, 4° C., 1 hour
T1 construct: FAP-expressing human WI-38 fibroblasts (ECACC) were cultured in EMEM; host or cells: WI-38 human fibroblasts
T1 sequence (Q12884 1-760): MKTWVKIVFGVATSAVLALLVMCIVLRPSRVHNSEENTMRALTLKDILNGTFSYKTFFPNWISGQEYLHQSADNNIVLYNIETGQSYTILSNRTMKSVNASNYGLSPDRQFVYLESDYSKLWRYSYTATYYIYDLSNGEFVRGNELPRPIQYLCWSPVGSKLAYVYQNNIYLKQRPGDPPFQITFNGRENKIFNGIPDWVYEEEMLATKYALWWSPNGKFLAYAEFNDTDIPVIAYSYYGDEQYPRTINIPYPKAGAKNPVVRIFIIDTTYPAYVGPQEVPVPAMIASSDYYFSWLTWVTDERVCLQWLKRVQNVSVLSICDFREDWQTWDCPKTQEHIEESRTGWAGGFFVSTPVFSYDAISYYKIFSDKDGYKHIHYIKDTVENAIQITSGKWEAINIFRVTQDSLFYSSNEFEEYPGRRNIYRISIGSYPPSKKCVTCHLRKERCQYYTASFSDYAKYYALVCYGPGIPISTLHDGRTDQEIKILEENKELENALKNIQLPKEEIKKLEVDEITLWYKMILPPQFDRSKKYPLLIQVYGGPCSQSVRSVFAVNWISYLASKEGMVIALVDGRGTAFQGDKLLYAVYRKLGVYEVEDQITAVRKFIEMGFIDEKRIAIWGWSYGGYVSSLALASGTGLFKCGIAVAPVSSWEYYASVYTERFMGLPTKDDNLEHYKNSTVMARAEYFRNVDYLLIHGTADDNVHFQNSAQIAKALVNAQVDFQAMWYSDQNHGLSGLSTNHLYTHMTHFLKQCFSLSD
Procedure: Cells were analyzed in an Attune NxT flow cytometer. […]

[2] = Plasma stability assay, mouse plasma; assay type: in vitro ADME; conditions: 4 h incubation, 37° C., read-out: % intact compound remaining after incubation, Mouse plasma
Human recombinant FAP [3] = biological target: T2, Human recombinant FAP (Homo sapiens, UniProt Q12884); test: FRET-based FAP protease activity assay; assay type: biochemical; design: purchased R&D systems 3715-SE; conditions: pIC50 Category (Activity), FRET substrate, 37° C.
T2 sequence (Q12884 1-760): T1 sequence (Q12884 1-760)

Human recombinant FAP [4] = biological target: T2, Human recombinant FAP; test: Surface plasmon resonance (Biacore) assay; assay type: binding

Row | Compound | pIC50 ([1]; WI-38 fibroblasts) | remaining at 4 h, 9.8 µM [2] [%] | pIC50 (Human recombinant FAP [3]; recombinant human FAP) | pKd (Human recombinant FAP [4]) | pIC50 [1] | pIC50 (Human recombinant FAP [3])
1 | CSCC[C@H](NC(C)=O)C(=O)N[C@H]1CSCc2cccc(c2)CSC[C@@H](C(=O)N[C@@H](CC(=O)O)C(=O)N[C@@H](Cc2c[nH]cn2)C(=O)N[C@@H](C)C(=O)N[C@@H](CCCNC(=N)N)C(=O)N[C@@H](CC(=O)O)C(N)=O)NC(=O)[C@H](Cc2ccccc2)NC(=O)[C@H](CCC(=O)O)NC(=O)[C@H]([C@@H](C)O)NC(=O)[C@@H]2CCCN2C(=O)[C@@H]2CCCN2C1=O [3BP-3196, Ac-Met-[Cys(3MeBn)-Pro-Pro-Thr-Glu-Phe-Cys]-Asp-His-Ala-Arg-Asp-NH2] (Ac-MCPPTEFCDHARD-NH2; linker 2-8 via mXylylene) | > 8.00 | 87 | > 8.00 |  |  | 
2 | CSCC[C@H](NC(C)=O)C(=O)N[C@H]1CSCc2cccc(c2)CSC[C@@H](C(=O)N[C@@H](CC(=O)O)C(=O)N[C@@H](Cc2c[nH]cn2)C(=O)N(C)[C@@H](Cc2ccccc2)C(=O)N[C@@H](CCCNC(=N)N)C(=O)N[C@@H](CC(=O)O)C(N)=O)NC(=O)[C@H](Cc2ccccc2)NC(=O)[C@H](CCC(=O)O)NC(=O)[C@H]2NC(=O)[C@@H]3C(CCN3C(=O)[C@@H]3CCCN3C1=O)[C@H]2O [3BP-3188, Ac-Met-[Cys(3MeBn)-Pro-Pro-Thr-Glu-Phe-Cys]-Asp-His-Nmf-Arg-Asp-NH2] | > 8.00 | 97 | > 8.00 |  |  | 
3 | CSCC[C@H](NC(C)=O)C(=O)N[C@H]1CSCc2cccc(c2)CSC[C@@H](C(=O)N[C@@H](CC(=O)O)C(=O)N[C@@H](Cc2c[nH]cn2)C(=O)NC2(C(=O)N[C@@H](CCCNC(=N)N)C(=O)N[C@@H](CC(=O)O)C(N)=O)Cc3ccccc3C2)NC(=O)[C@H](Cc2ccccc2)NC(=O)[C@H](CCC(=O)O)NC(=O)[C@H]([C@@H](C)O)NC(=O)[C@@H]2CCCN2C(=O)[C@@H]2CCCN2C1=O [3BP-3190, Ac-Met-[Cys(3MeBn)-Pro-Pro-Thr-Glu-Phe-Cys]-Asp-His-Aic-Arg-Asp-NH2] (Ac-MCPPTEFCDH[Aic]RD-NH2; linker 2-8 via mXylylene) | > 8.00 | 88 | > 8.00 |  |  | 
4 | CSCC[C@H](NC(C)=O)C(=O)N[C@H]1CSCc2cccc(c2)CSC[C@@H](C(=O)N[C@@H](CC(=O)O)C(=O)N[C@@H](Cc2c[nH]cn2)C(=O)N[C@@H](Cc2ccncc2)C(=O)N[C@@H](CCCNC(=N)N)C(=O)N[C@@H](CC(=O)O)C(N)=O)NC(=O)[C@H](Cc2ccccc2)NC(=O)[C@H](CCC(=O)O)NC(=O)[C@H]([C@@H](C)O)NC(=O)[C@@H]2CCCN2C(=O)[C@@H]2CCCN2C1=O [3BP-3191, Ac-Met-[Cys(3MeBn)-Pro-Pro-Thr-Glu-Phe-Cys]-Asp-His-Ppa-Arg-Asp-NH2] (Ac-MCPPTEFCDH[4Pal]RD-NH2; linker 2-8 via mXylylene) | > 8.00 | 100 | > 8.00 |  |  | 
5 | CSCC[C@H](NC(C)=O)C(=O)N[C@@H]1CSCc2cccc(c2)CSC[C@H](C(=O)N[C@@H](CC(=O)O)C(=O)N[C@@H](Cc2c[nH]cn2)C(=O)N[C@@H](Cc2ccccc2)C(=O)N[C@@H](CCCNC(=N)N)C(=O)N[C@@H](CC(=O)O)C(N)=O)NC(=O)[C@H](Cc2ccccc2)NC(=O)[C@H](CCC(=O)O)NC(=O)[C@H]([C@@H](C)O)NC(=O)[C@@H]2CCCN2C(=O)[C@@H]2CCCN2C1=O [3BP-3181, Ac-Metqcys(3MeBn)-Pro-Pro-Thr-Glu-Phe-cys]-Asp-His-Phe-Arg-Asp-NH2] (Ac-M[dC]PPTEF[dC]DHFRD-NH2; linker 2-8 via mXylylene) |  | 100 |  |  |  | 
6 | CCCCCC(=O)N[C@H]1CSCc2cc(CSCCNC(=O)CN3CCN(CC(=O)O)CCN(CC(=O)O)CCN(CC(=O)O)CC3)cc(c2)CSC[C@@H](C(=O)O)NC(=O)[C@H](Cc2ccccc2)NC(=O)[C@H](CCC(N)=O)NC(=O)[C@H]([C@@H](C)O)NC(=O)[C@@H]2C[C@@H](O)CN2C(=O)[C@@H]2CCCN2C1 [3BP-3679, Hex-[Cys(tMeBn(DOTA-AET))-Pro-Hyp-Thr-Gln-Phe-Cys]-OH] |  |  |  | > 8.00 | > 8.00 | > 8.00
7 | CCCCCC(=O)N[C@H]1CSCc2cccc(c2)CSC[C@@H](C(=O)N[C@@H](CCCCNC(=O)CCC(=O)NCCCOCCOCCOCCCNC(=O)CN2CCN(CC(=O)O)CCN(CC(=O)O)CCN(CC(=O)O)CC2)CC(=O)O)NC(=O)[C@H](Cc2ccccc2)NC(=O)[C@H](CCC(N)=O)NC(=O)[C@H]([C@@H](C)O)NC(=O)[C@@H]2CCCN2C(=O)[C@@H]2CCCN2C1=O [3BP-3489, Hex-[Cys(3MeBn)-Pro-Pro-Thr-Gln-Phe-Cys]-Bhk(DOTA-Ttds)-OH] | > 8.00 |  | > 8.00 | > 8.00 |  | 
8 | CCCCCC(=O)N[C@H]1CSCc2cc(CSCCNC(=O)CN3CCN(CC(=O)O)CCN(CC(=O)O)CCN(CC(=O)O)CC3)cc(c2)CSC[C@@H](C(=O)O)NC(=O)[C@H](Cc2ccccc2)NC(=O)[C@H](CCC(N)=O)NC(=O)[C@H]([C@@H](C)O)NC(=O)[C@@H]2CCCN2C(=O)[C@@H]2CCCN2C1 [3BP-3678, Hex-[Cys(tMeBn(DOTA-AET))-Nmg-Pro-Thr-Gln-Phe-Cys]-OH] |  |  |  | > 8.00 | > 8.00 | > 8.00
9 | CCCC[C@H](NC(=O)CCC(=O)NCCCOCCOCCOCCCNC(=O)C(CNCCN)CNCCN)C(=O)N[C@H]1CSCc2cccc(c2)CSC[C@@H](C(=O)O)NC(=O)[C@H](Cc2ccccc2)NC(=O)[C@H](CCC(N)=O)NC(=O)[C@H]([C@@H](C)O)NC(=O)[C@@H]2CCCN2C(=O)[C@@H]2CCCN2C1=O [3BP-4219, N4Ac-Ttds-Nle-[Cys-(3MeBn)-Pro-Pro-Thr-Gln-Phe-Cys]-OH] |  |  |  | > 8.00 | 7.10 to 8.00 | > 8.00
10 | CCCCCC(=O)N[C@H]1CSCc2cc(CSCCNC(=O)CN3CCN(CC(=O)O)CCN(CC(=O)O)CCN(CC(=O)O)CC3)cc(c2)CSC[C@@H](C(=O)N[C@@H](CO)C(=O)O)NC(=O)[C@H](Cc2ccccc2)NC(=O)[C@H](CCC(N)=O)NC(=O)[C@H]([C@@H](C)O)NC(=O)[C@@H]2CCCN2C(=O)[C@@H]2CCCN2C1 [3BP-3658, Hex-[Cys(tMeBn(DOTA-AET))-Pro-Pro-Thr-Gln-Phe-Cys]-Ser-OH] |  |  |  | > 8.00 | > 8.00 | > 8.00
11 | CCCCCC(=O)N[C@H]1CSCc2cc(CSCCNC(=O)CN3CCN(CC(=O)O)CCN(CC(=O)O)CCN(CC(=O)O)CC3)cc(c2)CSC[C@@H](C(=O)N[C@H](CC(=O)O)Cc2ccccc2)NC(=O)[C@H](Cc2ccccc2)NC(=O)[C@H](CCC(N)=O)NC(=O)[C@H]([C@@H](C)O)NC(=O)[C@@H]2CCCN2C(=O)[C@@H]2CCCN2C1 [3BP-3660, Hex-[Cys(tMeBn(DOTA-AET))-Pro-Pro-Thr-Gln-Phe-Cys]-Bhf-OH] |  |  |  | > 8.00 | > 8.00 | > 8.00
12 | CCCCCC(=O)N[C@H]1CSCc2cc(CSCCNC(=O)CN3CCN(CC(=O)O)CCN(CC(=O)O)CCN(CC(=O)O)CC3)cc(c2)CSCCNC(=O)[C@H](Cc2ccccc2)NC(=O)[C@H](CCC(N)=O)NC(=O)[C@H]([C@@H](C)O)NC(=O)[C@@H]2CCCN2C(=O)[C@@H]2CCCN2C1=O [3BP-3654, Hex-[Cys(tMeBn(DOTA-AET))-Pro-Pro-Thr-Gln-Phe-AET]] (Hexanoyl-CPPTQF; linker 1-C via X13) | > 8.00 |  | > 8.00 | > 8.00 |  | 
13 | CCCCCC(=O)N[C@H]1CSCc2cc(CSCCNC(=O)CC[C@H](C(=O)O)N3CCN(CC(=O)O)CN(CC(=O)O)C3)cc(c2)CSC[C@@H](C(=O)O)NC(=O)[C@H](Cc2ccccc2)NC(=O)[C@H](CCC(N)=O)NC(=O)[C@H]([C@@H](C)O)NC(=O)[C@@H]2CCCN2C(=O)[C@@H]2CCCN2C1=O [3BP-4162, Hex-[Cys-(tMeBn(NODAGA-AET))-Pro-Pro-Thr-Gln-Phe-Cys]-OH] |  |  |  | > 8.00 | > 8.00 | > 8.00
14 | CCCCCC(=O)N[C@H]1CSCc2cc(CSCCNC(=O)CN3CCN(CC(=O)O)CCN(CC(=O)O)CCN(CC(=O)O)CC3)cc(c2)CSC[C@@H](C(=O)N(C)CC(N)=O)NC(=O)[C@H](Cc2ccccc2)NC(=O)[C@H](CCC(N)=O)NC(=O)[C@H]([C@@H](C)O)NC(=O)[C@@H]2CCCN2C(=O)[C@@H]2CCCN2C1=O [3BP-3737, Hex-[Cys(tMeBn(DOTA-AET))-Pro-Pro-Thr-Gln-Phe-Cys]-Nmg-NH2] |  |  |  | > 8.00 | > 8.00 | > 8.00
